From PubChem BioAssay (NCI)
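At the GI50, growth is halved. TGI marks complete inhibition of growth.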

Tests used:
Assay in all cases: DTP human tumour cell line panel, 384-well format
A498 renal = system: A498 renal
K-562 leukemia = system: K-562 leukemia
HCT-15 colon = system: HCT-15 colon
MDA-MB-231 breast = system: MDA-MB-231 breast
SK-MEL-28 melanoma = system: SK-MEL-28 melanoma
NCI-H322M lung = system: NCI-H322M lung
HOP-62 NSCLC = system: HOP-62 NSCLC
PC-3 prostate = system: PC-3 prostate
BT-549 breast = system: BT-549 breast
OVCAR-3 ovarian = system: OVCAR-3 ovarian
OVCAR-5 ovarian = system: OVCAR-5 ovarian
ACHN renal = system: ACHN renal
CCRF-CEM leukemia = system: CCRF-CEM leukemia
HOP-92 NSCLC = system: HOP-92 NSCLC
A549 NSCLC = system: A549 NSCLC
NCI-H23 lung = system: NCI-H23 lung
NCI-H460 NSCLC = system: NCI-H460 NSCLC
SK-OV-3 ovarian = system: SK-OV-3 ovarian
DU-145 prostate = system: DU-145 prostate
M14 melanoma = system: M14 melanoma
EKVX NSCLC = system: EKVX NSCLC
KM12 colon = system: KM12 colon
TK-10 renal = system: TK-10 renal
OVCAR-8 ovarian = system: OVCAR-8 ovarian
MCF7 breast = system: MCF7 breast
MDA-MB-468 breast = system: MDA-MB-468 breast
SF-539 CNS = system: SF-539 CNS
T-47D breast = system: T-47D breast
NCI-H226 lung = system: NCI-H226 lung
RXF 393 renal = system: RXF 393 renal
SF-295 CNS = system: SF-295 CNS
MALME-3M melanoma = system: MALME-3M melanoma
786-0 renal = system: 786-0 renal
HCT-116 colon = system: HCT-116 colon
SW-620 colon = system: SW-620 colon
UACC-257 melanoma = system: UACC-257 melanoma
U251 glioblastoma = system: U251 glioblastoma
MDA-MB-435 melanoma = system: MDA-MB-435 melanoma
OVCAR-4 ovarian = system: OVCAR-4 ovarian
SNB-75 CNS = system: SNB-75 CNS
HL-60(TB) leukemia = system: HL-60(TB) leukemia
NCI-H522 lung = system: NCI-H522 lung
SK-MEL-5 melanoma = system: SK-MEL-5 melanoma
SNB-19 CNS = system: SNB-19 CNS
HT29 colon = system: HT29 colon
UACC-62 melanoma = system: UACC-62 melanoma
SF-268 CNS = system: SF-268 CNS
SN12C renal = system: SN12C renal
RPMI-8226 leukemia = system: RPMI-8226 leukemia
HS 578T breast = system: HS 578T breast
MOLT-4 leukemia = system: MOLT-4 leukemia
CAKI-1 renal = system: CAKI-1 renal
COLO 205 colon = system: COLO 205 colon
LOX IMVI melanoma = system: LOX IMVI melanoma
NCI/ADR-RES ovarian = system: NCI/ADR-RES ovarian
UO-31 renal = system: UO-31 renal
IGROV1 ovarian = system: IGROV1 ovarian
HCC-2998 colon = system: HCC-2998 colon

CCN(CC)CCCCNc1ncc2cc(-c3cc(OC)cc(OC)c3)c(NC(=O)NC(C)(C)C)nc2n1
GI50 (A498 renal): 2480 nM | TGI (A498 renal): 15 µM | GI50 (K-562 leukemia): 2560 nM | TGI (K-562 leukemia): 6.17 µM | GI50 (HCT-15 colon): 3.02 µM | TGI (HCT-15 colon): 11.6 µM | GI50 (MDA-MB-231 breast): 9.09 µM | TGI (MDA-MB-231 breast): 21.1 µM | GI50 (SK-MEL-28 melanoma): 3.23 µM | TGI (SK-MEL-28 melanoma): 8.34 µM | GI50 (NCI-H322M lung): 6.37 µM | TGI (NCI-H322M lung): 19.4 µM | GI50 (HOP-62 NSCLC): 6.07 µM | TGI (HOP-62 NSCLC): 18.2 µM | GI50 (PC-3 prostate): 7.34 µM | TGI (PC-3 prostate): 19.6 µM | GI50 (BT-549 breast): 2490 nM | TGI (BT-549 breast): 12.8 µM | GI50 (OVCAR-3 ovarian): 4.05 µM | TGI (OVCAR-3 ovarian): 14.5 µM | GI50 (OVCAR-5 ovarian): 9.74 µM | TGI (OVCAR-5 ovarian): 21.6 µM | GI50 (ACHN renal): 4.17 µM | TGI (ACHN renal): 15.8 µM | GI50 (CCRF-CEM leukemia): 2160 nM | TGI (CCRF-CEM leukemia): 4.68 µM | GI50 (HOP-92 NSCLC): 7.76 µM | TGI (HOP-92 NSCLC): 20.1 µM | GI50 (A549 NSCLC): 6.04 µM | TGI (A549 NSCLC): 18.5 µM | GI50 (NCI-H23 lung): 10.9 µM | TGI (NCI-H23 lung): 22.9 µM | GI50 (NCI-H460 NSCLC): 3.57 µM | TGI (NCI-H460 NSCLC): 12.6 µM | GI50 (SK-OV-3 ovarian): 3.77 µM | TGI (SK-OV-3 ovarian): 14 µM | GI50 (DU-145 prostate): 7.2 µM | TGI (DU-145 prostate): 19.5 µM | GI50 (M14 melanoma): 1900 nM | TGI (M14 melanoma): 3.82 µM | GI50 (EKVX NSCLC): 5.43 µM | TGI (EKVX NSCLC): 17.5 µM | GI50 (KM12 colon): 5.32 µM | TGI (KM12 colon): 17.3 µM | GI50 (TK-10 renal): 10.6 µM | TGI (TK-10 renal): 22.7 µM | GI50 (OVCAR-8 ovarian): 5.32 µM | TGI (OVCAR-8 ovarian): 17.5 µM | GI50 (MCF7 breast): 4.04 µM | TGI (MCF7 breast): 16.2 µM | GI50 (MDA-MB-468 breast): 3.81 µM | TGI (MDA-MB-468 breast): 10.1 µM | GI50 (SF-539 CNS): 2220 nM | TGI (SF-539 CNS): 8.59 µM | GI50 (T-47D breast): 2820 nM | TGI (T-47D breast): 8.19 µM | GI50 (NCI-H226 lung): 35.8 nM | TGI (NCI-H226 lung): 17.6 µM | GI50 (RXF 393 renal): 1730 nM | TGI (RXF 393 renal): 5.85 µM | GI50 (SF-295 CNS): 12.7 µM | TGI (SF-295 CNS): 25.5 µM | GI50 (MALME-3M melanoma): 1880 nM | TGI (MALME-3M melanoma): 3.35 µM | GI50 ([…]-0 renal): 3.05 µM | TGI (786-0 renal): 12.7 µM | GI50 (HCT-116 colon): 2860 nM | TGI (HCT-116 colon): 8.34 µM | GI50 (SW-620 colon): 11.3 µM | TGI (SW-620 colon): 23.4 µM | GI50 (UACC-257 melanoma): 1980 nM | TGI (UACC-257 melanoma): 3.41 µM | GI50 (U251 glioblastoma): 3.84 µM | TGI (U251 glioblastoma): 12.6 µM | GI50 (MDA-MB-435 melanoma): 10.9 µM | TGI (MDA-MB-435 melanoma): 23 µM | GI50 (OVCAR-4 ovarian): 13.6 µM | TGI (OVCAR-4 ovarian): 26.6 µM | GI50 (SNB-75 CNS): 613 nM | TGI (SNB-75 CNS): 13.8 µM | GI50 (HL-60(TB) leukemia): 1780 nM | TGI (HL-60(TB) leukemia): 3.19 µM | GI50 (NCI-H522 lung): 10.1 µM | TGI (NCI-H522 lung): 21.7 µM | GI50 (SK-MEL-5 melanoma): 1920 nM | TGI (SK-MEL-5 melanoma): 4.48 µM | GI50 (SNB-19 CNS): 13.6 µM | TGI (SNB-19 CNS): 26.7 µM | GI50 (HT29 colon): 1600 nM | TGI (HT29 colon): 3.46 µM | GI50 (UACC-62 melanoma): 5.33 µM | TGI (UACC-62 melanoma): 17 µM | GI50 (SF-268 CNS): 1530 nM | TGI (SF-268 CNS): 4.77 µM | GI50 (SN12C renal): 4.16 µM | TGI (SN12C renal): 15 µM | GI50 (RPMI-8226 leukemia): 4.31 µM | TGI (RPMI-8226 leukemia): 14.3 µM | GI50 (HS 578T breast): 2280 nM | TGI (HS 578T breast): 9.13 µM | GI50 (MOLT-4 leukemia): 1640 nM | TGI (MOLT-4 leukemia): 3.26 µM | GI50 (CAKI-1 renal): 1650 nM | TGI (CAKI-1 renal): 10.9 µM | GI50 (COLO 205 colon): 7.16 µM | TGI (COLO 205 colon): 19.4 µM | GI50 (LOX IMVI melanoma): 2460 nM | TGI (LOX IMVI melanoma): 6.58 µM | GI50 (NCI/ADR-RES ovarian): 5.26 µM | TGI (NCI/ADR-RES ovarian): 17.2 µM | GI50 (UO-31 renal): 8.38 µM | TGI (UO-31 renal): 20.7 µM | GI50 (IGROV1 ovarian): 3.56 µM | TGI (IGROV1 ovarian): 16 µM | GI50 (HCC-2998 colon): 3.01 µM | TGI (HCC-2998 colon): 10.5 µM
